# Measured values taken from patent US12171813B2, “Methods of and compositions for reducing gene expression and/or activity” (Christiana Care Gene Editing Institute, Inc., priority 2021, dated 2024).
# Legend:
# EGFR gene = test: Genomic DNA PCR assessment of large deletions in EGFR gene; format: cell-based, Human; settings: gRNA alone, not paired
# Method: After CRISPR reactions, genomic DNA was prepared for PCR amplification of the target region from EGFR gene. PCR-amplified DNA was then analyzed by electrophoresis through a 1% agarose gel for 75 minutes at 80v. DNA was stained with SYBR Safe. Lanes 1 and 10: NEB 2 Log Ladder; Lane 2: Scrambled gRNA; Lane 3: L858R gRNA alone; Lane 4: EGFR 21-22 SureKill gRNA 19 alone; Lane 5: EGFR 21-22 SureKill gRNA 27 alone; Lane 6: EGFR 21-22 SureKill gRNA 28+L858R gRNA; Lane 7: EGFR 21-22 SureKill gRNA 27+L858R gRNA; Lane 8: EGFR 21-22 SureKill gRNA 19+L858R gRNA; Lane 9: EGFR 21-22 SureKill gRNA 28 alone. On the left side of the image are markers indicating DNA size in bp. Expected dropout size of EGFR 21-22 SureKill gRNA 19+L858R gRNA: 316 bp. Expected dropout size of EGFR 21-22 SureKill gRNA 27+L858R gRNA: 417 bp. Expected dropout size of EGFR 21-22 SureKill gRNA 28+L858R gRNA: 463 bp. Dropout bands are indicated by asterisks.
# Human lung squamous cell carcinoma NCI-H1703 clone 44-25 cells were derived from NCI-H1703 cells (#CRL-5889) which were purchased from ATCC (Manassas, VA, USA). NCI-H1703 clone 44-25 cells contains R34G mutation (C 4 G) in NFE2L2 gene. […]
# (§1) Transfections were carried out using the Lonza Nuclefector 4d. […] RNPs were complexed at 250:50 pmol for 30 minutes prior to transfection, during which time cells were harvested and counted. […]
# NRF2 gene = test: Genomic DNA PCR assessment of large deletions in NRF2 gene; format: cell-based, Human; settings: gRNA alone, not paired
# Method: After CRISPR reactions, genomic DNA was prepared for PCR amplification of the target region from NRF2 gene. PCR-amplified DNA was then analyzed by electrophoresis through a 1% agarose gel for 75 minutes at 80v. DNA was stained with SYBR Safe. Lanes 1 and 12: NEB 2 Log Ladder; Lane 2: Scrambled gRNA; Lane 3: R34G gRNA alone; Lane 4: NRF2 3-4 SureKill gRNA 3 alone; Lane 5: NRF2 3-4 SureKill gRNA 12 alone; Lane 6: NRF2 3-4 SureKill gRNA 14 alone; Lane 7: NRF2 3-4 SureKill gRNA 15 alone; Lane 8: NRF2 3-4 SureKill gRNA 3+R34G gRNA; Lane 9: NRF2 3-4 SureKill gRNA 12+R34G gRNA; Lane 10: NRF2 3-4 SureKill gRNA 14+R34G gRNA; Lane 11: NRF2 3-4 SureKill gRNA 15+R34G gRNA. On the left side of the image are markers indicating DNA size in bp. Expected dropout size for NRF2 3-4 SureKill gRNA 3+R34G gRNA: 676 bp. Expected dropout size for NRF2 3-4 SureKill gRNA 12+R34G gRNA: 658 bp. Expected dropout size for NRF2 3-4 SureKill gRNA 14+R34G gRNA: 582 bp. Expected dropout size for NRF2 3-4 SureKill gRNA 15+R34G gRNA: 515 bp. Dropout bands are indicated by asterisks.
# Human lung squamous cell carcinoma NCI-H1703 clone 44-25 cells were derived from NCI-H1703 cells (#CRL-5889) which were purchased from ATCC (Manassas, VA, USA). […]
# as §1
Substance,large deletions (genomic DNA PCR) (EGFR gene),large deletions (genomic DNA PCR) (NRF2 gene)
"L858R gRNA: guide RNA TCAAGATCACAGATTTTGGG, SEQ ID NO:8, targets EGFR L858R mutation (listed as DNA, chemistry not given here)",does not induce a large deletion,
"R34G gRNA: guide RNA GATATAGATCTTGGAGTAAG, SEQ ID NO:1, targets NRF2 R34G mutation (listed as DNA, chemistry not given here)",,does not induce a large deletion
